The text below walks through data of patent US7993670B2, “Medical pad, and method for making and using” (General Wound Kare, Inc., priority 2003, dated 2011).

The subject of the series is wound. Description: Clinical experience: treatment of a patient's wound.
Setting [1] is: after a week of daily 1% gentian violet solution.

Source text: A change in the procedure was made. Instead of the direct application of the 1% gentian violet solution, a polyurethane pad, containing a reduced amount of gentian violet, mixed with glycerin and water, and then dried, was applied to the wound covered by the scab. Daily washings were continued and the scab was eventually debrided.

Take `CN(C)c1ccc(C(=C2C=CC(=[N+](C)C)C=C2)c2ccc(N(C)C)cc2)cc1` [gentian violet]: the scab formation result (1% gentian violet solution applied daily, wound washed daily with soap and water) is on record as “scab was formed”. In addition, under setting [1], the “infection of the wound” value is on record as “no evidence of any infection” and the “size of the wound” value is “remained the same”. Moreover, for the setting “liquid gentian violet solution at 1% strength painted on the wound daily”, the “staining of the painted wound area” value was “stained purple”.
